Test results from patent US7829587B2, “Substituted 2-aminotetralin derivatives as selective alpha 2B agonist” (Allergan, Inc., priority 2008, dated 2010).

How the values were obtained:
Type in all cases: cell-based
human α2A receptor = biological target: T1, human α2A receptor (Homo sapiens, UniProt P08913); assay: FLIPR Ca+2 influx assay, α2A; settings: for EC50: HEK 293 cells stably expressing human α2A receptor and chimeric G protein Gqi5; for Relative efficacy FLIPR α2A: relative efficacy compared to standard full agonist norepinephrine, HEK 293, human α2A/Gqi5
T1 construct: expressed in transfected cells; host or cells: HEK 293
T1 sequence (P08913 1-465): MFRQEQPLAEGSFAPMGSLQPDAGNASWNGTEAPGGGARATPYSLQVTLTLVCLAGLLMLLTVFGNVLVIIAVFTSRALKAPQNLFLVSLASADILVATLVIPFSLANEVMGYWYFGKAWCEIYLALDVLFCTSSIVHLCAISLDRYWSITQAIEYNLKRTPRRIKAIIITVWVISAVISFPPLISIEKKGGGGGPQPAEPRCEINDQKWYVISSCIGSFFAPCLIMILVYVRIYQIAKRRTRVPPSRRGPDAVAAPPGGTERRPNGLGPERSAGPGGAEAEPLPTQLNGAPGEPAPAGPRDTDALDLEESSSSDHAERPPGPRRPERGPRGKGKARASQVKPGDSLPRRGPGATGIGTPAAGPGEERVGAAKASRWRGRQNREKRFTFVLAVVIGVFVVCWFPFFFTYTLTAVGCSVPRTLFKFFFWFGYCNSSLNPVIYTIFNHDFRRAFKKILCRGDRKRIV
Protocol: (§1) The compounds disclosed herein are agonists of alpha 2B/2C adrenergic receptors. […] This assay is adequate for monitoring the intracellular Ca^2+ mobilization from fluorescent reading to evaluate receptor agonists.
(§2) FLIPR Ca+2 Influx Assay: HEK 293 cells stably expressing the bovine α1A receptor, the rat α1B receptor, the human α2A receptor and the chimeric G protein Gqi5, the human α2C receptor and the chimeric G protein Gqi5 and the mouse α2B receptor and the Gα16 protein were plated in poly-D-lysine coated 384 well plates at 15,000-25,000 cells per well and grown overnight in DMEM supplemented with 10% fetal bovine serum. For FLIPR (fluorometric image plate reader) evaluation, cells were washed 2-4 times with HBSS/HEPES Buffer (1× Hanks Buffered Salt Solution, 20 mM HEPES<pH 7.4) prior to the addition of Fluo-4-AM (4 uM Fluo-4-AM, 0.04% pluronic acid in HBSS/HEPES Buffer), a calcium-sensitive dye. Cells were loaded with Dye for 40 minutes at 30° C., then washed 4-8 times with HBSS/HEPES Buffer to remove excess dye. Cells were preincubated at 37° C. for 3 minutes prior to placement into the FLIPR instrument. The reaction was carried out at 37° C. and was initiated by the addition of the appropriate dilutions of compounds. The transient calcium was captured and the peak height of the calcium curve determined and utilized for calculation of EC50 and efficacy using ActivityBase. Data is stored in the ActivityBase database under the unique identifier “Test Occasion”, which reflects the results of an assay run on a particular date and the individual responsible for the assay. Norepinephrine was the standard full agonist for evaluating alpha1 and alpha2 receptor activity.

rat α1B receptor = biological target: T2, rat α1B receptor (Rattus norvegicus, UniProt P15823); assay: FLIPR Ca+2 influx assay, α1B; settings: for EC50: HEK 293 cells stably expressing rat α1B receptor; for Relative efficacy FLIPR α1B: relative efficacy compared to standard full agonist norepinephrine, HEK 293, rat α1B
T2 construct: expressed in transfected cells; host or cells: HEK 293
T2 sequence (P15823 1-515): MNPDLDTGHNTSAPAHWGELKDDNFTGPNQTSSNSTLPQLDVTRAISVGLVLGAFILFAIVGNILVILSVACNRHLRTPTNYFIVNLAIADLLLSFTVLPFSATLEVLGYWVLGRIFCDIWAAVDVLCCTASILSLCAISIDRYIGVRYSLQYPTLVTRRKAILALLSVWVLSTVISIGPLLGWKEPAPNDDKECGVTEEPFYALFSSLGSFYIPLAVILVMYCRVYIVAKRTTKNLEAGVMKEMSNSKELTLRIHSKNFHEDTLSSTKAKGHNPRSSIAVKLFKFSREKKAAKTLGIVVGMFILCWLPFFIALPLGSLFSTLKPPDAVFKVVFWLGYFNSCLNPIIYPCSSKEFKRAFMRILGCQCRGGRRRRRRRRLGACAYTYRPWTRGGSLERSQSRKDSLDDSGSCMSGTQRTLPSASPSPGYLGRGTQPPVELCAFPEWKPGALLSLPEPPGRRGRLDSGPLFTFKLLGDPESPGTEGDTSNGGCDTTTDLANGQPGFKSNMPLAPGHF
Protocol: as §1, §2

human α2C receptor = biological target: T3, human α2C receptor (Homo sapiens, UniProt P18825); assay: FLIPR Ca+2 influx assay, α2C; settings: for EC50: HEK 293 cells stably expressing human α2C receptor and chimeric G protein Gqi5; for Relative efficacy FLIPR α2C: relative efficacy compared to standard full agonist norepinephrine, HEK 293, human α2C/Gqi5
T3 construct: expressed in transfected cells; host or cells: HEK 293
T3 sequence (P18825 1-462): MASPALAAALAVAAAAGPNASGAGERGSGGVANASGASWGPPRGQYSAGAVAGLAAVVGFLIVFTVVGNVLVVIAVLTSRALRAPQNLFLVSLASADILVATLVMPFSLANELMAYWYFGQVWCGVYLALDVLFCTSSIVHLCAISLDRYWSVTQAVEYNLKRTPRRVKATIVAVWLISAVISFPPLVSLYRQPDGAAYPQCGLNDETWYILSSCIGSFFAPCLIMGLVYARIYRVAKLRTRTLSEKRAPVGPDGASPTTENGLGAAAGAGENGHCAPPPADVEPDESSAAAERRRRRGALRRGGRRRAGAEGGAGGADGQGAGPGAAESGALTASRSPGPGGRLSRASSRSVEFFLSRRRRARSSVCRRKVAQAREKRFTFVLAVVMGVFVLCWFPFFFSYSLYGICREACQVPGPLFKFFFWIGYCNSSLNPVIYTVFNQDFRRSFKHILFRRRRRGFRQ
Protocol: as §1, §2

mouse α2B receptor = biological target: T4, mouse α2B receptor (Mus musculus, UniProt P30545); assay: FLIPR Ca+2 influx assay, α2B; settings: for Relative efficacy FLIPR α2B: relative efficacy compared to standard full agonist norepinephrine, HEK 293, mouse α2B/Gα16
T4 construct: expressed in transfected cells; host or cells: HEK 293
T4 sequence (P30545 1-453): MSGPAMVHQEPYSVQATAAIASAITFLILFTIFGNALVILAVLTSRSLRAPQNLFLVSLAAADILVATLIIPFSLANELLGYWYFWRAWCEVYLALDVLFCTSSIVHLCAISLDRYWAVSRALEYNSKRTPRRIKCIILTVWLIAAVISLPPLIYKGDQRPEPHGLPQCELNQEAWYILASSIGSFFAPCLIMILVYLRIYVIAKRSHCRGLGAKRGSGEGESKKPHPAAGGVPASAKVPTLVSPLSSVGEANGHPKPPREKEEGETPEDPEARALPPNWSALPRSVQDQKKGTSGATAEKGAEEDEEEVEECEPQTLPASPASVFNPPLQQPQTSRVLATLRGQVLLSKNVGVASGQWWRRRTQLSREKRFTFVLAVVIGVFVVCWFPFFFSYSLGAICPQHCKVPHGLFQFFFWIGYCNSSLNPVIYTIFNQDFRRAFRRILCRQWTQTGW
Protocol: as §1, §2

bovine α1A receptor = biological target: T5, bovine α1A receptor (Bos taurus, UniProt P18130); assay: FLIPR Ca+2 influx assay, α1A; settings: for EC50: HEK 293 cells stably expressing bovine α1A receptor; for Relative efficacy FLIPR α1A: relative efficacy compared to standard full agonist norepinephrine, HEK 293, bovine α1A
T5 construct: expressed in transfected cells; host or cells: HEK 293
T5 sequence (P18130 1-466): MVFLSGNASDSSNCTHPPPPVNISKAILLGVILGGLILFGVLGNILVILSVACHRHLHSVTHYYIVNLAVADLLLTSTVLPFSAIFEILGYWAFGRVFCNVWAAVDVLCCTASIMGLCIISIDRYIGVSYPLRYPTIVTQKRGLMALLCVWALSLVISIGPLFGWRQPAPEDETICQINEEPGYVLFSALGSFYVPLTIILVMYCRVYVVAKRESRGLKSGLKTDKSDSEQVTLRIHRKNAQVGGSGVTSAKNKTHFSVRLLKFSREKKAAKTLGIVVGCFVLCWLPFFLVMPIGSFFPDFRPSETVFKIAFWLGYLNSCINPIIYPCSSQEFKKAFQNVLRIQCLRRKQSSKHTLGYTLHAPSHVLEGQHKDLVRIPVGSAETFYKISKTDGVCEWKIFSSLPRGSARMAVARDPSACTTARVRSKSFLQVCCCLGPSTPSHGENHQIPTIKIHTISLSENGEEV
Protocol: as §1, §2

[1] = HEK 293 cells stably expressing mouse α2B receptor and Gα16 protein

SMILES	EC50 (human α2A receptor) [nM]	Relative efficacy FLIPR α2A (human α2A receptor)	EC50 (rat α1B receptor) [nM]	Relative efficacy FLIPR α1B (rat α1B receptor)	EC50 (human α2C receptor) [nM]	Relative efficacy FLIPR α2C (human α2C receptor)	EC50 (mouse α2B receptor; [1]) [nM]	Relative efficacy FLIPR α2B (mouse α2B receptor)	EC50 (bovine α1A receptor) [nM]	Relative efficacy FLIPR α1A (bovine α1A receptor)	EC50 FLIPR α2B (mouse α2B receptor; [1])
CCCN(Cc1ccncc1)C1CCc2cccc(OC)c2C1 (stereo not drawn)	1850	0.22	> 10000	0	2150	0.69	36	1.0	> 10000	0	
CCCN(Cc1ccncc1)[C@@H]1CCc2cccc(OC)c2C1	424	0.34	> 10000	0	557	0.67		1.02	> 10000	0	potent
CCCN(Cc1ccncc1)C1CCc2cccc(O)c2C1 (stereo not drawn)	> 10000	0	> 10000	0		ND (0.12)	58	1.06	> 10000	0	
CCCN(Cc1ccncc1)[C@@H]1CCc2cccc(O)c2C1	> 10000	0	> 10000	0	> 10000	0	4	0.8	> 10000	0	
CCN(Cc1ccncc1)C1CCc2cccc(OC)c2C1 (stereo not drawn)	203	0.74	> 10000	0	253	0.72	78	0.91	> 10000	0	
CCN(Cc1ccncc1)C1CCc2cccc(O)c2C1 (stereo not drawn)	5500	0.16		ND (0.15)	6700	0.17	185	1.08		ND (0.1)	
